Assay [1] concerns IL4-polarized macrophages. As to the kind of experiment: mRNA expression in IL-4-polarized macrophages (RNAseq, qPCR). In kind it is cell-based, human. On the procedure:
Human monocytes were differentiated during 5 days with 50 ng/mL CSF-1 and then polarized into MO-macrophages (CSF-1) or M2-macrophages (IL-4) for 24 (mRNA) or 48 hours. […] The expression of the indicated mRNA is analyzed by qPCR (mean ±SEM of 6 independent experiments). *P<0.05, **P<0.01 according to a paired student t test (versus M2-macrophages).
The RNA integrity (RNA Integrity Score≥7.0) was checked on the Agilent 2100 Bioanalyzer (Agilent) and quantity was determined using Qubit (Invitrogen). SureSelect Automated Strand Specific RNA Library Preparation Kit was used according to manufacturer's instructions with the Bravo Platform. Briefly, 50 to 200 ng of total RNA sample was used for poly-A mRNA selection using oligo(dT) beads and subjected to thermal mRNA fragmentation. The fragmented mRNA samples were subjected to cDNA synthesis and were further converted into double stranded DNA using the reagents supplied in the kit, and the resulting dsDNA was used for library preparation. The final libraries were bar-coded, purified, pooled together in equal concentrations and subjected to paired-end sequencing on Novaseq-6000 sequencer (Illumina) at Gustave Roussy.
Quantification. Quality of raw FastQ files was assessed with Fastqc v0.11.8 and Fastq-screen v0.13.0. Quality report was gathered with MultiQC v1.8. Abundance estimation was performed with Salmon v0.14.1 using following parameters: —libType A —validateMappings —numBootstraps 60. Salmon index was created using Human Gencode reference annotation release 33 and using following parameters —gencode —keepDuplicates. Differential analysis. Statistical analysis was performed using R 3.6.1. Transcript expression levels were aggregated in gene expression levels using tximport v1.14.0 Bioconductor package. At this step only protein coding genes were considered. We also decided to keep only high quality annotations therefore genes annotated as “automated annotation” in GENCODE were discarded. DESeq2 v1.26.0 method was used to identify differentially expressed genes between groups with an adjusted p-value threshold of 0.05.
RNA was prepared from 5×10^6 cells using the RNeasy Mini Kit according to manufacturer's protocol (Qiagen, 74104). Each cDNA sample was prepared using AMV RT and random primers (Promega, M510F and C1181). Real-time polymerase chain reaction (PCR) was performed using the SyBR Green detection protocol (Life Technologies, 4367659). Briefly, 5 ng of total cDNA, 500 nM (each) primers, and 5 μL SyBR Green mixture were used in a total volume of 10 μL. Detection of multiple endogenous controls (ACTB, L32 and UBIQUITIN) were used to normalize the results. Specific forward and reverse primers are accessible upon request.
Background: Real-time PCR tracks product formation cycle by cycle.

In assay [2] the test system is bleomycin-induced pulmonary fibrosis. As to the kind of experiment: Bleomycin-induced lung fibrosis in mice. In kind it is in vivo. The following applies: subcutaneous 18 μg/g body weight twice a day for three weeks; bleomycin-treated mice. The text has this: FIG. 7. Pharmacologic and genetic inhibition of caspase-8 prevents bleomycin-induced pulmonary fibrosis. (A) Quantification of Sirius Red labeling intensity. […] Each dot or square is an individual mouse. *P<0.05 according to Mann-Whitney test. (B) Quantification of airspace number/mm2 of parenchymal tissue. Results expressed as fold change in treated compared to control mice as in B. *P<0.05 according to Mann-Whitney test. (C) Quantification of Sirius Red labeling intensity. Results expressed as fold change in treated compared to control mice, C8 KO+bleomycin compared to C8 KO as in B. *P<0.05 according to Mann-Whitney test. (D) Quantification of airspace number/mm2 of parenchymal tissue. Results are expressed as fold change in treated compared to untreated wild-type mice, as in panel E. *P<0.05 according to Mann-Whitney test. (E) Cytokines were measured in broncho-alveolar lavage fluid collected from bleomycin-treated wild-type (wt) and LysM-Cre/Caspase-8 flox/flox (C8 KO) mice treated with bleomycin. Results are expressed as fold-changes compared to untreated mice. *P<0.05, **P<0.01 according to Mann-Whitney test. […]
Procedures were approved by our Institutional Ethical Committee (CEEA 26) and the French Ministry of Research (#9861). […] To quantify airspace number, tissue sections 4-μm stained with Sirius Red were scanned using a NanoZoomer-SQ (Hamamatsu Corporation, Japan). […]

[3] abbreviates: qPCR, Emricasan 3 μM added 16h before polarization.

For the compound `C[C@H](NC(=O)C(=O)Nc1ccccc1C(C)(C)C)C(=O)N[C@@H](CC(=O)O)C(=O)COc1c(F)c(F)cc(F)c1F` [Emricasan, (S)-3-((S)-2-(2-((2-(tert-Butyl)phenyl)amino)-2-oxoacetamido)propanamido)-4-oxo-5-(2,3,5,6-tetrafluorophenoxy)pentanoic acid], the “IL-4 induction of anti-inflammatory and repression of pro-inflammatory markers (RNAseq)” value in assay [1] (macrophages from three different donors) is reported as “counteracted”. Besides, in assay [1] (setting [3]), the “IL-4-increased CCL18 mRNA expression” value is reported as “counteracted” and the “IL-4-increased CD200R mRNA expression” value is “counteracted”. The “CXCL8 mRNA level” value in assay [1] (qPCR, IL-4 combined with Emricasan 3 μM) was “upregulated”. Moreover, in assay [2], the “lung fibrosis intensity (Sirius Red staining intensity and air space)” value is “dramatically decreases”.

(Values after US20220354811A1, “METHODS AND COMPOSITIONS FOR MODULATING MACROPHAGES POLARIZATION” (INSERM (INSTITUT NATIONAL DE LA SANTÉ ET DE LA RECHERCHE …, priority 2019, published 2022).)
